From BigSolDB 2.1

Cc1cccc(C(=O)O)c1[N+](=O)[O-]
solubility (mole fraction)
Conditions	in 1,4-dioxane	in NMP	in acetone	in acetonitrile	in ethanol	in ethyl acetate	in isopropanol	in methanol	in n-propanol
283.15 K	–	0.0128	0.0253	0.00464	0.0103	0.00907	0.00877	0.0097	0.00792
285.65 K	0.0281	0.0141	0.0265	0.00501	0.0111	0.00965	0.00946	0.0104	0.00845
288.15 K	0.0303	0.0154	0.0277	0.00543	0.012	0.0102	0.0102	0.0112	0.00895
290.65 K	0.0324	0.0168	0.0291	0.00588	0.013	0.0108	0.011	0.012	0.00955
293.15 K	0.0346	0.0184	0.0305	0.00633	0.014	0.0115	0.0118	0.0129	0.0102
295.65 K	0.0371	0.0201	0.0318	0.00684	0.0152	0.0121	0.0126	0.0138	0.0109
298.15 K	0.0396	0.0218	0.0333	0.00737	0.0165	0.0128	0.0136	0.0149	0.0116
300.65 K	0.0424	0.0234	0.0347	0.00788	0.0179	0.0136	0.0145	0.0159	0.0124
303.15 K	0.0452	0.0254	0.0364	0.00846	0.0193	0.0144	0.0153	0.0171	0.0133
305.65 K	0.0483	0.0273	0.0379	0.00915	0.0207	0.0151	0.0163	0.0183	0.0141
308.15 K	0.0512	0.0296	0.0396	0.00984	0.0223	0.016	0.0175	0.0196	0.0151
310.65 K	0.0543	0.032	0.0414	0.0106	0.0238	0.017	0.0186	0.0209	0.016
313.15 K	0.0577	0.0345	0.0432	0.0113	0.0257	0.018	0.0198	0.0223	0.0169
315.65 K	0.0609	0.0372	0.045	0.0121	0.0276	0.019	0.021	0.0237	0.0178
318.15 K	0.0646	0.0405	0.0466	0.0128	0.0296	0.02	0.0224	0.0252	0.0188
